Assay results: patent publication US12486300B2, “Mithramycin oxime derivatives having increased selectivity and anti-cancer activity” (University of Kentucky Research Foundation, priority 2018, dated 2025)

Key:
Type in all cases: cell-based
[1] = system: TC32 Ewing sarcoma cells, expressing EWS-FLI1; experiment: Growth inhibition assay, TC32 cells; conditions: for TC32 vs. PC3 / IC50: Table 1C; for TC32 vs. PC3: cellular selectivity; for IC50: read-out: IC50 TC-32; for EC50: Table 1D, read-out: TC-32 Mean EC50; for PC:TC32 (cellular selectivity): ratio of GI50 PC3 to TC32
Method: (§1) Growth inhibition assay to assess cytotoxicity in ETS vs non-ETS expressing cells. Cells were seeded in clear 96-well plates (VWR, Radnor, PA). Seeding densities were optimized for each cell line to support 5 days of linear growth. Following a 24 hours attachment period, cells in duplicate wells were treated with half-log increments of respective compounds (0 nM and 0.3 nM-10 μM). Working stocks were prepared from an initial 10 mM drug stock diluted in either 100% ethanol or dimethyl sulfoxide (DMSO). All wells contained a final concentration of 0.1% (v/v) respective organic solvent. Immediately following treatment, cell viability was measured for vehicle control (Day 0) wells. Cell viability was measured in the remaining wells after 72 hours of incubation with compound or vehicle control (Day 3).
(§2) Percent viability, relative to the initial cell seeding concentration, was calculated by ((TreatmentDay3−Vehicle ControlDay0)/(Vehicle ControlDay3−Vehicle ControlDay0))×100. Percent cell viability was plotted as a function of compound concentration (Log [M]) and the data were fit using a 3-parameter non-linear model with fixed Hill slope constant and 4-parameter non-linear model with variable Hill slope constant. The model with the best curve fit was used to estimate the GI50 in GraphPad Prism 7.0 software (GraphPad Software, La Jolla, CA). The 3-parameter equation used was Y=Bottom+(Top−Bottom)/(1+10[…]((X−Log[IC50]))). The 4-parameter equation used was Y=Bottom+(Top−Bottom)/(1+10[…]((Log[IC50]−X)*Hillslope)). Top and Bottom are plateaus in the units of the Y-axis (response). IC50 is the response (Y-axis) halfway between Top and Bottom plateaus.
(§3) All compounds were tested at least once in multi-well replicates and each experiment included one a control compound (i.e., MTM) to ensure the stable response of the cell lines. The selectivity index was estimated by determining the ratio of GI50 estimates between ETS fusion negative and ETS fusion positive cell lines.

[2] = system: PC3 Prostate Cancer Cells; experiment: Growth inhibition assay, PC3 cells; conditions: for IC50: Table 1C; for EC50: Table 1D
Method: as §1, §2, §3

[3] = system: G-401 (ATTC Cat. No., CRL-1441); Rhabdoid tumor of the kidney; experiment: Growth inhibition assay, G-401 cells; conditions: for IC50: Table 1C; for EC50: Table 1D
Method: as §1, with “3). For viability measurements, 0.1 mM resazurin (Sigma, St. Louis, MO) was added to wells and following 3 hours of incubation at 37° C., fluorescence readings ([…]) were recorded using a SpectraMax M5 plate reader (Molecular Devices, Sunnyvale, CA).” for “3).”
as §2
as §3, with “GI50 values were determined by pooling all available experiments and reported with 95% confidence interval, calculated from GraphPad Prism 7.0 software curve fit. All” for “All”

[4] = system: A-204 (ATTC Cat. No., HTB-82); Rhabdomyosarcoma (embryonal); experiment: Growth inhibition assay, A-204 cells; conditions: for IC50: Table 1C; for EC50: Table 1D
Method: as §1, with “3). For viability measurements, 0.1 mM resazurin (Sigma, St. Louis, MO) was added to wells and following 3 hours of incubation at 37° C., fluorescence readings ([…]) were recorded using a SpectraMax M5 plate reader (Molecular Devices, Sunnyvale, CA).” for “3).”
as §2
as §3, with “GI50 values were determined by pooling all available experiments and reported with 95% confidence interval, calculated from GraphPad Prism 7.0 software curve fit. All” for “All”

[5] = system: RH30 muscle rhabdomyosarcoma; experiment: Growth inhibition assay, RH30 cells; conditions: Table 1D
Method: as §1, with “3). For viability measurements, 0.1 mM resazurin (Sigma, St. Louis, MO) was added to wells and following 3 hours of incubation at 37° C., fluorescence readings ([…]) were recorded using a SpectraMax M5 plate reader (Molecular Devices, Sunnyvale, CA).” for “3).”
as §2
as §3, with “GI50 values were determined by pooling all available experiments and reported with 95% confidence interval, calculated from GraphPad Prism 7.0 software curve fit. All” for “All”

U-2 OS bone osteosarcoma = experiment: Growth inhibition assay, U-2 OS cells; conditions: Table 1D
Method: as §1, with “3). For viability measurements, 0.1 mM resazurin (Sigma, St. Louis, MO) was added to wells and following 3 hours of incubation at 37° C., fluorescence readings ([…]) were recorded using a SpectraMax M5 plate reader (Molecular Devices, Sunnyvale, CA).” for “3).”
as §2
as §3, with “GI50 values were determined by pooling all available experiments and reported with 95% confidence interval, calculated from GraphPad Prism 7.0 software curve fit. All” for “All”

Structure (SMILES) | EC50 [1] [nM] | EC50 [2] [nM] | PC:TC32 (cellular selectivity) [1] | also measured
COC(C(=NOCC(=O)N(C)C(Cc1cn(C)c2ccccc12)C(=O)N1CCOCC1)C(O)C(C)O)C1Cc2cc3cc(OC4CC(OC5CC(O)C(O)C(C)O5)C(O)C(C)O4)c(C)c(O)c3c(O)c2C(=O)C1OC1CC(OC2CC(OC3CC(C)(O)C(O)C(C)O3)C(O)C(C)O2)C(O)C(C)O1 (stereo not drawn) [AK-B6] | 10.7 | 52.3 |  | TC32 vs. PC3 [1]: >3×; IC50 [1]: 32 to 120 nM; IC50 [2]: 150 to 370 nM
COC(C(=NOCC(=O)NC(Cc1cn(C)c2ccccc12)C(=O)N1CCOCC1)C(O)C(C)O)C1Cc2cc3cc(OC4CC(OC5CC(O)C(O)C(C)O5)C(O)C(C)O4)c(C)c(O)c3c(O)c2C(=O)C1OC1CC(OC2CC(OC3CC(C)(O)C(O)C(C)O3)C(O)C(C)O2)C(O)C(C)O1 (stereo not drawn) [AK-B11] | 49.8 | 666 |  | TC32 vs. PC3 [1]: >8×; IC50 [1]: 147 to 300 nM; IC50 [2]: 1600 to 2500 nM
COC(C(=NOCC(=O)NC(Cc1c[nH]c2ccccc12)C(=O)N1CCOCC1)C(O)C(C)O)C1Cc2cc3cc(OC4CC(OC5CC(O)C(O)C(C)O5)C(O)C(C)O4)c(C)c(O)c3c(O)c2C(=O)C1OC1CC(OC2CC(OC3CC(C)(O)C(O)C(C)O3)C(O)C(C)O2)C(O)C(C)O1 (stereo not drawn) [MTM102] | 162 | 1650 |  | TC32 vs. PC3 [1]: 17×; IC50 [1]: 156 nM; IC50 [2]: 2700 nM; IC50 [3]: 514 nM; EC50 [3]: 591 nM; IC50 [4]: 2300 nM; EC50 [4]: 2740 nM
CCN(CC)C(=O)C(Cc1c[nH]c2ccccc12)NC(=O)CON=C(C(O)C(C)O)C(OC)C1Cc2cc3cc(OC4CC(OC5CC(O)C(O)C(C)O5)C(O)C(C)O4)c(C)c(O)c3c(O)c2C(=O)C1OC1CC(OC2CC(OC3CC(C)(O)C(O)C(C)O3)C(O)C(C)O2)C(O)C(C)O1 (stereo not drawn) [MTM103] | 23.5 | 91.3 |  | EC50 [3]: 25.5 nM; EC50 [4]: 194 nM; EC50 [5]: 29.4 nM
COC(C(=NOCC(=O)NC(Cc1c[nH]c2ccccc12)C(=O)N1CCC1)C(O)C(C)O)C1Cc2cc3cc(OC4CC(OC5CC(O)C(O)C(C)O5)C(O)C(C)O4)c(C)c(O)c3c(O)c2C(=O)C1OC1CC(OC2CC(OC3CC(C)(O)C(O)C(C)O3)C(O)C(C)O2)C(O)C(C)O1 (stereo not drawn) [MTM104] | 91.7 | 671 |  | TC32 vs. PC3 [1]: 8×; IC50 [1]: 87 nM; IC50 [2]: 730 nM; IC50 [3]: 219 nM; EC50 [3]: 222 nM; IC50 [4]: 864 nM; EC50 [4]: 883 nM; EC50 [5]: 295 nM; EC50 (U-2 OS bone osteosarcoma): > 10000 nM
COC(C(=NOCC(=O)NC(Cc1c[nH]c2ccccc12)C(=O)N1CC(C)(C)C1)C(O)C(C)O)C1Cc2cc3cc(OC4CC(OC5CC(O)C(O)C(C)O5)C(O)C(C)O4)c(C)c(O)c3c(O)c2C(=O)C1OC1CC(OC2CC(OC3CC(C)(O)C(O)C(C)O3)C(O)C(C)O2)C(O)C(C)O1 (stereo not drawn) [MTM105] | 29.4 | 177 |  | EC50 [3]: 23.4 nM; EC50 [5]: 45.9 nM; EC50 (U-2 OS bone osteosarcoma): > 10000 nM
CCOC(=O)[C@H](Cc1c[nH]c2ccccc12)NC(=O)CO/N=C(\[C@@H](O)[C@@H](C)O)[C@@H](OC)[C@@H]1Cc2cc3cc(O[C@H]4C[C@@H](O[C@H]5C[C@@H](O)[C@H](O)C(C)O5)[C@H](O)C(C)O4)c(C)c(O)c3c(O)c2C(=O)[C@H]1O[C@H]1C[C@@H](O[C@H]2C[C@@H](O[C@H]3C[C@](C)(O)[C@H](O)C(C)O3)[C@H](O)C(C)O2)[C@H](O)C(C)O1 (stereo partly drawn) [MTM (41)] | 266 | 4060 | 13.5 | 
CO[C@H](/C(=N/OCC(=O)N[C@@H](Cc1c[nH]c2ccccc12)C(N)=O)[C@@H](O)[C@@H](C)O)[C@@H]1Cc2cc3cc(O[C@H]4C[C@@H](O[C@H]5C[C@@H](O)[C@H](O)C(C)O5)[C@H](O)C(C)O4)c(C)c(O)c3c(O)c2C(=O)[C@H]1O[C@H]1C[C@@H](O[C@H]2C[C@@H](O[C@H]3C[C@](C)(O)[C@H](O)C(C)O3)[C@H](O)C(C)O2)[C@H](O)C(C)O1 (stereo partly drawn) [MTM (42)] | 304 | 3550 | 8.5 | 
CO[C@H](/C(=N/OCC(=O)N[C@@H](Cc1c[nH]c2ccccc12)C(=O)N(C)C)[C@@H](O)[C@@H](C)O)[C@@H]1Cc2cc3cc(O[C@H]4C[C@@H](O[C@H]5C[C@@H](O)[C@H](O)C(C)O5)[C@H](O)C(C)O4)c(C)c(O)c3c(O)c2C(=O)[C@H]1O[C@H]1C[C@@H](O[C@H]2C[C@@H](O[C@H]3C[C@](C)(O)[C@H](O)C(C)O3)[C@H](O)C(C)O2)[C@H](O)C(C)O1 (stereo partly drawn) [MTM (44)] | 84.5 | > 1470 | 35 | 
CO[C@H](/C(=N/OCC(=O)N[C@@H](Cc1c[nH]c2ccccc12)C(=O)N(C)OC)[C@@H](O)[C@@H](C)O)[C@@H]1Cc2cc3cc(O[C@H]4C[C@@H](O[C@H]5C[C@@H](O)[C@H](O)C(C)O5)[C@H](O)C(C)O4)c(C)c(O)c3c(O)c2C(=O)[C@H]1O[C@H]1C[C@@H](O[C@H]2C[C@@H](O[C@H]3C[C@](C)(O)[C@H](O)C(C)O3)[C@H](O)C(C)O2)[C@H](O)C(C)O1 (stereo partly drawn) [MTM (54)] | 67 | 437 | 1.7 | 
CO[C@H](/C(=N/OCC(=O)N[C@@H](Cc1c[nH]c2ccccc12)c1nc(C)co1)[C@@H](O)[C@@H](C)O)[C@@H]1Cc2cc3cc(O[C@H]4C[C@@H](O[C@H]5C[C@@H](O)[C@H](O)C(C)O5)[C@H](O)C(C)O4)c(C)c(O)c3c(O)c2C(=O)[C@H]1O[C@H]1C[C@@H](O[C@H]2C[C@@H](O[C@H]3C[C@](C)(O)[C@H](O)C(C)O3)[C@H](O)C(C)O2)[C@H](O)C(C)O1 (stereo partly drawn) [MTM (57)] | 74 | > 1680 | 3.3 | EC50 [3]: 712 nM; EC50 [4]: 3180 nM; EC50 (U-2 OS bone osteosarcoma): > 10000 nM
CO[C@H](/C(=N/OCC(=O)N[C@H](CO)Cc1c[nH]c2ccccc12)[C@@H](O)[C@@H](C)O)[C@@H]1Cc2cc3cc(O[C@H]4C[C@@H](O[C@H]5C[C@@H](O)[C@H](O)C(C)O5)[C@H](O)C(C)O4)c(C)c(O)c3c(O)c2C(=O)[C@H]1O[C@H]1C[C@@H](O[C@H]2C[C@@H](O[C@H]3C[C@](C)(O)[C@H](O)C(C)O3)[C@H](O)C(C)O2)[C@H](O)C(C)O1 (stereo partly drawn) [MTM (59)] | 84.7 | 313 | 4.8 | 
COC(C(=NOCC(=O)Nc1ccc2[nH]cnc2c1)C(O)C(C)O)C1Cc2cc3cc(OC4CC(OC5CC(O)C(O)C(C)O5)C(O)C(C)O4)c(C)c(O)c3c(O)c2C(=O)C1OC1CC(OC2CC(OC3CC(C)(O)C(O)C(C)O3)C(O)C(C)O2)C(O)C(C)O1 (stereo not drawn) [MTM (71)] |  |  | 3.2 | 
COC(C(=NOCC(=O)Nc1ccc2[nH]c(C)cc2c1)C(O)C(C)O)C1Cc2cc3cc(OC4CC(OC5CC(O)C(O)C(C)O5)C(O)C(C)O4)c(C)c(O)c3c(O)c2C(=O)C1OC1CC(OC2CC(OC3CC(C)(O)C(O)C(C)O3)C(O)C(C)O2)C(O)C(C)O1 (stereo not drawn) [MTM (72)] |  |  | 20.9 | 
COC(C(=NOCC(=O)Nc1ccc2ncccc2c1)C(O)C(C)O)C1Cc2cc3cc(OC4CC(OC5CC(O)C(O)C(C)O5)C(O)C(C)O4)c(C)c(O)c3c(O)c2C(=O)C1OC1CC(OC2CC(OC3CC(C)(O)C(O)C(C)O3)C(O)C(C)O2)C(O)C(C)O1 (stereo not drawn) [MTM (74)] |  |  | 66.6 | 
COC(C(=NOCC(=O)Nc1ccc2cnccc2c1)C(O)C(C)O)C1Cc2cc3cc(OC4CC(OC5CC(O)C(O)C(C)O5)C(O)C(C)O4)c(C)c(O)c3c(O)c2C(=O)C1OC1CC(OC2CC(OC3CC(C)(O)C(O)C(C)O3)C(O)C(C)O2)C(O)C(C)O1 (stereo not drawn) [MTM (75)] |  |  | 118 | 
COC(C(=NOCC(=O)Nc1cccc2cc[nH]c12)C(O)C(C)O)C1Cc2cc3cc(OC4CC(OC5CC(O)C(O)C(C)O5)C(O)C(C)O4)c(C)c(O)c3c(O)c2C(=O)C1OC1CC(OC2CC(OC3CC(C)(O)C(O)C(C)O3)C(O)C(C)O2)C(O)C(C)O1 (stereo not drawn) [MTMox (73)] |  |  | 5.9 | 
